Here are results for seven molecules from patent US6783952B1, “Secreted soluble α2δ-2, α2δ-3 or α2δ-4 calcium channel subunit polypeptides and screening assays using same” (Warner-Lambert Company, priority 1999, dated 2004).

The target in this test is [^3H]gabapentin site in porcine cortical membranes (Sus scrofa, UniProt O77773). In words: [3H]gabapentin binding site competition in porcine cortical membranes. To be noted: read-out: IC50 arithmetic mean (N = 3) ± S.E.M., binding affinity for the [3H]gabapentin site, mean of n = 3 ± S.E.M.
Sequence of [^3H]gabapentin site in porcine cortical membranes (O77773 25-1091): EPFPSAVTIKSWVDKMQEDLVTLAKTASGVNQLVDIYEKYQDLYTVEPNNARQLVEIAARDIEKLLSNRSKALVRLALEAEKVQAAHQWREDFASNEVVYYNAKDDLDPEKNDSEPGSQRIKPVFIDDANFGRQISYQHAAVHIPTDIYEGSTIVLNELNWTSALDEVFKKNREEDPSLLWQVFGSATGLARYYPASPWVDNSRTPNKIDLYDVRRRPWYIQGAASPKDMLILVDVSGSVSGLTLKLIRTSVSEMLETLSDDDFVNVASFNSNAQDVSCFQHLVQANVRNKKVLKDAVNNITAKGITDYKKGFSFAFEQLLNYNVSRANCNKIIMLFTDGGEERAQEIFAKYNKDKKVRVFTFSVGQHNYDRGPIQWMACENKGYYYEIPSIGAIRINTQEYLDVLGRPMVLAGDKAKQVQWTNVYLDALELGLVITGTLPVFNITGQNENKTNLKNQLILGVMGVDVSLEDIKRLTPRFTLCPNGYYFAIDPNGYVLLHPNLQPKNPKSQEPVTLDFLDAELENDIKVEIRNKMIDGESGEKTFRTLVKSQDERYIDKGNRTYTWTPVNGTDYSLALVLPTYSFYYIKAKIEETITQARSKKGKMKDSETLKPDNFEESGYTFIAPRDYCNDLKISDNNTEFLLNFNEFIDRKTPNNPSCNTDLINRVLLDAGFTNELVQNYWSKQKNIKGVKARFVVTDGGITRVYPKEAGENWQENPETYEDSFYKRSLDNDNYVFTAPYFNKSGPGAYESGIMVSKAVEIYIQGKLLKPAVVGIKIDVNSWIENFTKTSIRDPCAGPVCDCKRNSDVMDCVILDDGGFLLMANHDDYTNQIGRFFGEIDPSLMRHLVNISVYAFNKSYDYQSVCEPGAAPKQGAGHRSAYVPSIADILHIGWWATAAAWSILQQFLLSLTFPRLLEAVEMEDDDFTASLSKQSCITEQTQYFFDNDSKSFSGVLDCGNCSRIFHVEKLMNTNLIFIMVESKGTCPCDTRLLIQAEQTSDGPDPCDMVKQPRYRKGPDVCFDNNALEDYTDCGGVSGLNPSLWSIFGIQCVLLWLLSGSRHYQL

Turning to `CC[C@@H](C)[C@H](N)C(=O)O` [L-Allo-Isoleucine], the IC50 (as a rule, the concentration needed to halve the response being measured) came out at 32.8 ± 6 nM.
`CC[C@H](C)[C@H](N)C(=O)O` [L-Isoleucine]: the IC50 was 68.8 ± 1.9 nM.
On to `CC(C)C[C@H](N)C(=O)O` [L-Leucine], for which the half-inhibitory concentration (IC50) came to 61.3 ± 20.9 nM.
As for `CSCC[C@H](N)C(=O)O` [L-Methionine], the figure is 49.6 ± 10 nM.
The figure for `CCCC[C@H](N)C(=O)O` [L-Norleucine] is 23.6 ± 6.7 nM; for `N[C@@H](Cc1ccccc1)C(=O)O` [L-Phenylalanine] it is 351 ± 89 nM.
As to `CC(C)[C@H](N)C(=O)O` [L-Valine], the half-maximal inhibitory concentration (IC50) was found to be 330 ± 18 nM.
